As a reminder, the GI50 is the concentration that inhibits growth by half.

Series [1] deals with HCT-116 p21^−/−. Particulars: cited from earlier work.
In series [2] the test system is HCT-116 p21^+/+. Particulars: cited from earlier work.
Series [3] relates to OSBP1 localization in A549 cells. Kind of series: OSBP1 localization by immunofluorescence microscopy, A549. Format: cell-based, human. On the procedure: (§1) Immunofluorescence microscopy. HCT-116 or A549 (adenocarcinomic human alveolar basal epithelial) cells were plated on coverslips in 6-well plates. After 72 h, the culture media was removed and replaced with media containing either compound or vehicle control. At the indicated time-points, the cells were fixed for 10 min using 3.7% formaldehyde in PBS. The coverslips were washed with PBS and permeabilized for 5 min with 0.5% Triton X-100 in PBS. Following PBS washing, the coverslips were blocked for 30 min using Image-iT™ FX (Invitrogen), washed with PBS, and then blocked for 30 min at room temperature (RT) with 1% BSA in PBS (BSA/PBS). The coverslips were then incubated overnight at 4° C. with a primary antibody solution in BSA/PBS. The coverslips were washed with BSA/PBS and incubated for 60 min at RT with Alexa Fluor®-conjugated secondary antibodies (Invitrogen) in BSA/PBS, with the final 30 min including incubation with Hoescht 33258. The coverslips were then washed sequentially with BSA/PBS, PBS, and water and finally mounted on microscope slides using Aqua Poly/Mount (Polysciences Inc.). Imaging data was acquired using Zeiss LSM 510 META scanning confocal microscope.
Perturbations of OSBP1 localization by 1, 2, and 4b in A549 cells were also observed.

Series [4] deals with HCT-116 p21^−/− cells with OSBP1-targeting shRNA. Kind of series: OSBP1 shRNA knockdown/dose-shift experiment. Format: cell-based, human. Particulars: shOSBP1 vs shNT, 72 h. From the text: FIG. 3A is a series of four bar graphs depicting knockdown/dose-shift experiment in HCT-116 p21^−/− cells stably transfected with either OSBP1-targeting shRNA (shOSBP1) or non-targeting shRNA (shNT). Bars represent s.d. of three or four individual experiments. * P=0.0002 (n=3); ** P=0.0006 (n=4); *** P=0.0003 (n=3) compared to shNT cells (two-tailed students t-test).
To ascertain if the antiproliferative activity of the ORPphilins depended on the levels of OSBP1 and ORP4L in cells, short hairpin RNA (shRNA) knockdown of OSBP1 expression was performed and then its effect on the growth inhibitory activity of 1, 2, and 4a measured. […] Similar results were obtained in HeLa cells. Overexpression of OSBP1-myc-his or ORP4L-myc-his (FIG. 3C) for 48 h desensitized HeLa cells to the antiproliferative activity of 1, 2, or 4a by ˜2-5-fold (FIG. 3D). However, taxol-induced growth inhibition was not affected by overexpression of OSBP1-myc-his or ORP4L-myc-his (FIG. 3D).

For series [5], the system named is CHO-K1 cells. Kind of series: Sphingomyelin biosynthesis, [3H]-serine pulse-labeling, CHO-K1. In kind it is cell-based. On the procedure:
Sphingomyelin is biosynthesized from ceramide at the Golgi apparatus. Ceramide is primarily transported from the ER to the Golgi by ceramide transport protein (CERT), and the transport activity of CERT is both OSBP1- and VAP-A dependent. […] To determine whether the ORPphilins affect sphingomyelin synthesis, pulse-labeling with [^3H]-serine was performed in CHO-K1 and HCT-116 cells and the amount of tritium incorporated into sphingomyelin and other lipids then measured. Cells were treated with vehicle or compound for 6 h, and in the last 2 h the cells were pulsed with 10 μCi [^3H]-serine. Lipids were extracted and isolated by TLC, and label incorporation into sphingomyelin was measured by scintillation counting.

For series [6], the system named is HCT-116 cells. Description: Growth inhibition with 25-OHC co-administration. Format: cell-based, human. Particulars: 10 μM 25-OHC for 1 and 2. The protocol: 25-OHC (11) is a high-affinity ligand of OSBP1 and ORP4L that is not cytotoxic at concentrations up to 10 μM. Example 1 established that the ORPphilins compete with 25-OHC for binding to OSBP1 and ORP4L (FIG. 2D,E). Therefore, if OSBP1 and ORP4L mediate the biological activities of these compounds, co-administration of sub-lethal doses of 25-OHC with the ORPphilins should inhibit binding of the ORPphilins to OSBP1 and ORP4L, thereby desensitizing cells to the cytotoxic effects of the ORPphilins.

Series [7] has as its system HeLa cells overexpressing OSBP1(V582M). Kind of series: Overexpression-viability assay, OSBP1(V582M)-myc-his. In kind it is cell-based. Particulars: 48 h. The protocol: (§2) Overexpression-viability assays with wild-type and mutant OSBP/ORP4L constructs were carried out by transfecting HeLa cells with the appropriate plasmids using Lipofectamine™ LTX with PLUS™ reagent (Invitrogen) as instructed, and after 8 h of transfection, the cells were re-plated for the cell viability assay, performed as described above. Expression levels were evaluated by immunoblotting at the time of dosing.
(§3) For additional support that OSBP1 and ORP4L are targets of the ORPphilins, dominant drug-resistant alleles of these proteins were sought. 15 OSBP1 residues inside and outside the region of the protein previously reported to mediate sterol binding were mutated (FIG. 4C). The growth inhibition induced by the ORPphilins was determined in HeLa cells overexpressing either wild-type or mutant OSBP1-myc-his proteins. Expression of wt OSBP1-myc-his and mutant OSBP1-myc-his were nearly equivalent as measured by western blot.
(§4) The same mutant caused a 3.9-fold reduction in the antiproliferative activity of OSW-1 (2) (FIG. 4E2) and a 2.7-fold reduction in the activity of schweinfurthin A (4a) (FIG. 4E3). […] The antiproliferative activity of taxol was unaffected by expression of these two OSBP1 mutant proteins (FIGS. 4E4, 4E8).

In series [8] the test system is HeLa cells overexpressing OSBP1-myc-his or ORP4L-myc-his. Description: Overexpression-viability assay, OSBP1-myc-his or ORP4L-myc-his. Format: cell-based. Particulars: 48 h, vs lacZ. On the procedure: as §2
Series [9] relates to HeLa cells overexpressing OSBP1(M446W)-myc-his. Kind of series: Overexpression-viability assay, OSBP1(M446W)-myc-his. Particulars: 48 h. Format: cell-based. The protocol: as §2, §3, §4
The test system of series [10] is OSBP1 localization in HCT-116 cells. Description: OSBP1 localization by immunofluorescence microscopy, HCT-116. In kind it is cell-based, human. Particulars: 4 h treatment. On the procedure: as §1
Although the function of OSBP1 is not yet fully elucidated, several cellular activities have been observed. For instance, OSBP1 translocates from cytoplasmic sites to the trans-Golgi network (TGN) upon addition of 25-OHC to cells. HCT-116 cells were treated with ORPphilins for short time periods (4 h) and the effects on OSBP1 localization monitored using immunofluorescence microscopy.
OSBP1 (green) and trans-Golgi protein P230 (red) were visualized in HCT-116 cells using indirect immunofluorescence microscopy. Cells were treated with compound for 4 h, fixed with 3.7% formaldehyde/PBS, washed, and permeabilized using 0.5% Triton X-100 in PBS. Proteins were labelled using specific primary antibodies against OSBP1 and P230 overnight at 4° C. After washing, cells were treated with Alexa Fluor 488 and Alexa Fluor 546 secondary antibodies for 1 h at RT.

The target in series [11] is T1, ORP4L-myc-his (Homo sapiens, UniProt Q969R2).
T1 sequence (Q969R2 1-916): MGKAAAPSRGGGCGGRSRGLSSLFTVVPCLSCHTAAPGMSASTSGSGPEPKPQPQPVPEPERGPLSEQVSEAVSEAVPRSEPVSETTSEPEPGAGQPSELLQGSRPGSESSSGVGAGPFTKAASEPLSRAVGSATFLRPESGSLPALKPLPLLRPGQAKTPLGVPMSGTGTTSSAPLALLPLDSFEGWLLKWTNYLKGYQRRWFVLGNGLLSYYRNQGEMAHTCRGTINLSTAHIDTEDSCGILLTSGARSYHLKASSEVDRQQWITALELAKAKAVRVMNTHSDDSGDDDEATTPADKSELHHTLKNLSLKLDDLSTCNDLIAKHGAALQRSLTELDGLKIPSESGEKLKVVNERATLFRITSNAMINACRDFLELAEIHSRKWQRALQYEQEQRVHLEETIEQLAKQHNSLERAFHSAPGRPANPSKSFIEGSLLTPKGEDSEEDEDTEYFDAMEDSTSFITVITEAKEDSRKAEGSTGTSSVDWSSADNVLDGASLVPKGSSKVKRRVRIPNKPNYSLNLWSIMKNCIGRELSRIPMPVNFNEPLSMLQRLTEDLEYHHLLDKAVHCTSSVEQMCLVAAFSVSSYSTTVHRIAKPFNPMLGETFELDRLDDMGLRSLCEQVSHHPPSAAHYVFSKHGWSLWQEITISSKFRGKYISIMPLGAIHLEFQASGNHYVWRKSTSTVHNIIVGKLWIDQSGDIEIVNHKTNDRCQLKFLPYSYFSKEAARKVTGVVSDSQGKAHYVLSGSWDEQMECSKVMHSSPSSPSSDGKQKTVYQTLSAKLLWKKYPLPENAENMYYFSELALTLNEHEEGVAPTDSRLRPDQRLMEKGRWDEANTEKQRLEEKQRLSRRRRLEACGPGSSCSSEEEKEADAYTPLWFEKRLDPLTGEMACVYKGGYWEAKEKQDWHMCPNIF
Kind of series: [3H]-25-hydroxycholesterol charcoal-dextran binding assay with ORP4L-myc-his. Particulars: read-out: [^3H]-25-OHC K1 (nM) ORP4L-myc-his; competition with 20 nM [3H]-25-OHC, HEK-293T S100 lysate, 4° C., 16 h.
Description: [^3H]-25-Hydroxycholesterol charcoal-dextran binding assay. […] These vectors were transfected into HEK-293T cells using Lipofectamine™2000 (Invitrogen), and 48 h after transfection, on-plate lysis of the transfected cells with the M-Per®/HALT™ with EDTA (ThermoScientific) reagent was performed, followed by ultracentrifugation at 100,000 g. The S100 lysate was diluted to 0.2 mg/mL, aliquoted and stored at −80° C. until use. The HEK-293T OSBP1-, ORP4L- or lacZ-myc-his lysate was incubated with [^3H]-25-hydroxycholesterol at 4° C. for 16 h in 96-well plates. After incubation, charcoal/dextran (C/D) was added to the wells for 30 min of shaking at RT, followed by centrifugation for 15 min at 1900 g to pellet the C/D. The C/D-cleared lysate was added to MicroScint™-20 (PerkinElmer) scintillation fluid, and the remaining protein-bound radiolabel was quantified using a TopCount™ scintillation counter. [^3H]-25-hydroxycholesterol binding curves and competition curves were repeated at least three times.
Lysates were thawed on ice, with brief periods of hand warming. Both the ^3H-25-OHC direct binding assays and the ^3H-25-OHC competition binding assays were set up similarly, with a large stock of binding assay lysate being prepared, then 73.5 μL of the binding assay mixture dispensed using a multi-channel pipettor into “V”-shaped 96-well plates. For the ^3H-25-OHC direct binding assay, 1.5 μL of ^3H-25-OHC and ^3H-25-OHC/40×25-OHC added to the wells in dilutions in 100% ethanol. For the ^3H-25-OHC competition binding assays, ^3H-25-OHC was added to the large stock of binding assay lysate to a final concentration of 20 nM. This ^3H-25-OHC-containing binding lysate was then dispensed using a multi-channel pipettor into the 96-well plates. Then, 1.5 μL of a serial dilution of the inhibitors in either 100% ethanol (25-OHC) or DMSO (the ORPphilins) was added to each well.
The binding lysate used in each well of the 96-well plate consisted of 60 μL of 0.2 mg/mL S100 lysate, 7.5 μL 20% PVA, and 5.6 μL 2M KCl. For ^3H-25-OHC binding curve experiments, 0.4 μL of buffer was then added (total volume per well: 73.5 μL). For the ^3H-25-OHC inhibition competition assays, 0.11 μL of 13.2 μM ^3H-25-OHC and 0.29 μL binding buffer was added for each well (total volume per well: 73.5 μL).
Binding assays were incubated, standing, for 16 h at 4° C. Then 30 μL of the rt C/D solution was multichannel pipetted into new “V’ shaped 96-well plates, and 60 μL of the binding lysate mixture was then added. The plates were briefly, lightly vortexed (˜10 sec), 10 and then rocked at 250 rpm for 30 min at rt. The plates were then centrifuged at 1900 g for 15 min at 4° C. in Microplate Carriers (Sorvall cat. #75006449S) in a Sorvall Legend RT centrifuge. Carefully so as to not disturb the C/D pellet, 30 μL of the supernatant was transferred to 170 μL of Microscint-20 in the OptiPlates. The plates were sealed with the TopSealA-Films, and vigorously vortexed (max speed, >1 min). ^3H-25-OHC detection in the wells was then performed using a TopCount Scintillation detector, counting each well for 2 min. Data was graphed and analyzed using GraphPad PrismS, using non-linear regression to determine KD and K1 values.
Binding experiments were performed at 4° C. for 16 h. Unbound sterol was removed using dextran-coated charcoal, and protein-bound sterol left in the supernatant was quantified by scintillation counting. Ki-values were determined as mean±s.d. from at least three independent experiments.

Series [12] has as its target T2, OSBP1-myc-his (Homo sapiens, UniProt P22059).
T2 construct: made in house; host or cells: HEK-293T (transient transfection; S100 lysate, not purified)
T2 sequence (P22059 1-807): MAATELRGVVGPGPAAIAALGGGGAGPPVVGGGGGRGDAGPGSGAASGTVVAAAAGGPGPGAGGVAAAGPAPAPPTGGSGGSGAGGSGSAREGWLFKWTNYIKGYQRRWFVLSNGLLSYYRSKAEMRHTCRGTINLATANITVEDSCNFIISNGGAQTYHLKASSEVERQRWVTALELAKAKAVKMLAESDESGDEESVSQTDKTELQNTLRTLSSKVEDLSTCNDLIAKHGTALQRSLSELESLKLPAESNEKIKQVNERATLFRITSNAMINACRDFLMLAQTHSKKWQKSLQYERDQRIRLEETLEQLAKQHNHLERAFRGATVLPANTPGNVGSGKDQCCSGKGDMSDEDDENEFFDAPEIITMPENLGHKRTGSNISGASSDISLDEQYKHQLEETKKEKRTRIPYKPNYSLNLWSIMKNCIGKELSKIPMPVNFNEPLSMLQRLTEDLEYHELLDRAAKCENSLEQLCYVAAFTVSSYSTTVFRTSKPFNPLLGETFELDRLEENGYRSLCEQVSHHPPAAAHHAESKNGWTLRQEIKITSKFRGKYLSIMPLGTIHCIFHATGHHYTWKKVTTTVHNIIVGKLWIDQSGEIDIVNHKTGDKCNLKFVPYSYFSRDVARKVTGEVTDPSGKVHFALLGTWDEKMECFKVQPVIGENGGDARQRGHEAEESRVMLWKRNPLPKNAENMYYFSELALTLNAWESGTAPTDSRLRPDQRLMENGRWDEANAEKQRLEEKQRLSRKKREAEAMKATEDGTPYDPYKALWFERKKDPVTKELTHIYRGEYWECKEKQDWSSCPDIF
Description: [3H]-25-hydroxycholesterol charcoal-dextran binding assay with OSBP1-myc-his. Particulars: competition with 20 nM [3H]-25-OHC, HEK-293T S100 lysate, 4° C., 16 h; read-out: [^3H]-25-OHC K1 (nM) OSBP1-myc-his. From the text: [^3H]-25-Hydroxycholesterol charcoal-dextran binding assay.
Methods are described above in the General Methods section.

On to `CC(/C=C/C=C(C)/C=C/C=C(\C)C(=O)O)=C1/C(=O)C[C@H]2[C@@]3(C)CCC(=O)C(C)(C)[C@@H]3CC[C@]12C` [(−)-stellettin E, (−)-Stellettin E], for which, in series [1], the 50% growth inhibitory concentration (GI50) is 39 nM and the “times more cytotoxic to HCT-116 p21−/− than to parental HCT-116” value is recorded as 117 times. In addition, the concentration for 50% growth inhibition (GI50) in series [2] was 4570 nM.
Consider `COc1cc(/C=C/c2cc(O)c(C/C=C(\C)CCC=C(C)C)c(O)c2)cc2c1O[C@]1(C)C[C@@H](O)[C@@H](O)C(C)(C)[C@H]1C2` [Schweinfurthin B, schweinfurthin B], for which the OSBP1 localization entry in series [3] was “perinuclear OSBP1-staining similar to 25-OHC”.
With `CC(=O)O[C@H]1C(=O)[C@@]2(C)[C@H]([C@H](OC(=O)c3ccccc3)[C@]3(O)C[C@H](OC(=O)[C@H](O)[C@@H](NC(=O)c4ccccc4)c4ccccc4)C(C)=C1C3(C)C)[C@]1(OC(C)=O)CO[C@@H]1C[C@@H]2O` [taxol], the “sensitization by OSBP1 knockdown (GI50 shift)” value in [4] is “did not sensitize”. In addition, the “inhibition of SM biosynthesis (negative controls)” value in series [5] is reported as “did not occur”. Also, in [6], the “effect of 25-OHC co-administration on the antiproliferative activity” value was “did not affect”. In [7], the “reduction in antiproliferative activity, OSBP1(V582M) vs wt OSBP1” value is given as “unaffected”. In [8], the “desensitization by overexpression of OSBP1-myc-his or ORP4L-myc-his” value is “not affected”. The “reduction in antiproliferative activity at the GI50 level, OSBP1(M446W) vs wt OSBP1” value in [9] was “unaffected”.
Take `C/C=C(/C)C(=O)O[C@H]1C(C)=C2[C@H]([C@@H]1OC(=O)CCCCCCC)[C@@](C)(OC(C)=O)C[C@H](OC(=O)CCC)[C@@]1(O)[C@H]2OC(=O)[C@@]1(C)O` [thapsigargin]: in series [5], the “inhibition of SM biosynthesis (negative controls)” value was “did not occur”.
With ritterazine B, the OSBP1 localization entry in series [10] was “effect was also observed”. In addition, the Ki in series [11] is over 360 nM; in series [12], 28 ± 4 nM.

The record behind these values is patent US9790253B2, “OSW-1 analogs and conjugates, and uses thereof” (priority 2011, dated 2017).
